According to patent publication US12286437B2, “Cardiac sarcomere inhibitors” (Cytokinetics, Inc., priority 2021, dated 2025):

Tests used:
[1] = tested on: bovine cardiac myofibrils; assay: Myofibril assay (ATPase activity of skinned bovine cardiac myofibrils, PK/LDH-coupled); type: biochemical; details: inhibition of steady-state ATPase of bovine cardiac myofibrils; CaCl2 for 50% or 75% activation
Procedure, shortened: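 Steady-state ATPase of detergent-skinned bovine left-ventricular myofibrils (1 mg/mL), PK/LDH-coupled NADH read at 340 nm, in PIPES/MgCl2 buffer pH 6.8 with 50 μM ATP, 0.6 mM EGTA and CaCl2 set for 50% or 75% activation. Inhibition of activity measured.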

[2] = Dog cassette dosing pharmacokinetics; type: in vivo, beagle dogs; details: male, beagle, plasma, IV; for Vd: read-out: Vss; for half-life: read-out: t½ (converted)
Procedure, shortened: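 Cross-over IV/PO cassette study in non-naïve male beagles; IV dose prepared at 0.2 mg/mL in 10% DMA/50% PG/40% HPβCD. Plasma sampled to 24 h and measured by LC/MS/MS. Noncompartmental PK parameters; bioavailability from dose-normalized AUC∞ PO/IV in the same animal.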

[3] = Monkey cassette dosing pharmacokinetics; type: in vivo; details: IV; for clearance / Vd: male, plasma; for Vd: read-out: Vss
CYP2C9 = target: T1, CYP2C9 (Homo sapiens, UniProt P11712); assay: Time-dependent inhibition of CYP2C9 in human liver microsomes; type: in vitro ADME; details: for (% Activity NADPH T0)/(% Activity NADPH T30): fold change; for activity at 30 min, 25 µM / activity at 0 min, 25 µM / activity at 30 min, 50 µM / activity at 0 min, 50 µM: pooled human liver microsomes, human liver microsomes; for activity at 30 min, 25 µM / activity at 30 min, 50 µM: after 30 minutes incubation, read-out: % Activity NADPH T30; for activity at 0 min, 25 µM / activity at 0 min, 50 µM: time zero, read-out: % Activity NADPH T0
T1 construct: Pooled human microsomes and selective CYP probe substrates were used; from tissue; host or cells: pooled human liver microsomes
Experimental: (§1) An assessment of the time-dependent Inhibitory Potential of the test compounds against Principal Human Cytochrome P450 Isozymes using Human Liver Microsomes was also carried out using standard methods (Grimm et al, Drug Metab. Dispos., July; 37(7):1355-70. doi: 10.1124/dmd.109.026716, 2009). Pooled human microsomes and selective CYP probe substrates were used for in vitro assessment of test compounds at 25 and 50 μM as time-dependent inhibitors of […] human hepatic cytochrome P450 isozymes (CYP1A2, 2B6, 2C9, 2C19, 2D6, and 3A4). LC-MS/MS was used to quantify metabolite formation. The inhibition of each P450 enzyme in human liver microsomes was measured as the percentage decrease in the activity of marker metabolite formation as measured by LC-MS/MS compared to non-inhibited controls (=100% activity) at time zero and after 30 minutes incubation. The occurrence of any time dependent inhibition was then expressed as the fold change in enzyme activity at time zero relative to the activity after 30 minutes incubation.

CYP2C19 = target: T2, CYP2C19 (Homo sapiens, UniProt P33261); assay: Time-dependent inhibition of CYP2C19 in human liver microsomes; type: in vitro ADME; details: for (% Activity NADPH T0)/(% Activity NADPH T30): fold change; for activity at 30 min, 25 µM / activity at 0 min, 25 µM / activity at 30 min, 50 µM / activity at 0 min, 50 µM: pooled human liver microsomes, human liver microsomes; for activity at 30 min, 25 µM / activity at 30 min, 50 µM: after 30 minutes incubation, read-out: % Activity NADPH T30; for activity at 0 min, 25 µM / activity at 0 min, 50 µM: time zero, read-out: % Activity NADPH T0
T2 construct: Pooled human microsomes and selective CYP probe substrates were used; from tissue; host or cells: pooled human liver microsomes
Experimental: as §1

CYP2D6 = target: T3, CYP2D6 (Homo sapiens, UniProt P10635); assay: Time-dependent inhibition of CYP2D6 in human liver microsomes; type: in vitro ADME; details: for (% Activity NADPH T0)/(% Activity NADPH T30): fold change; for activity at 30 min, 25 µM / activity at 0 min, 25 µM / activity at 30 min, 50 µM / activity at 0 min, 50 µM: pooled human liver microsomes, human liver microsomes; for activity at 30 min, 25 µM / activity at 30 min, 50 µM: after 30 minutes incubation, read-out: % Activity NADPH T30; for activity at 0 min, 25 µM / activity at 0 min, 50 µM: time zero, read-out: % Activity NADPH T0
T3 construct: Pooled human microsomes and selective CYP probe substrates were used; from tissue; host or cells: pooled human liver microsomes
Experimental: as §1

T2 sequence (P33261 whole entry): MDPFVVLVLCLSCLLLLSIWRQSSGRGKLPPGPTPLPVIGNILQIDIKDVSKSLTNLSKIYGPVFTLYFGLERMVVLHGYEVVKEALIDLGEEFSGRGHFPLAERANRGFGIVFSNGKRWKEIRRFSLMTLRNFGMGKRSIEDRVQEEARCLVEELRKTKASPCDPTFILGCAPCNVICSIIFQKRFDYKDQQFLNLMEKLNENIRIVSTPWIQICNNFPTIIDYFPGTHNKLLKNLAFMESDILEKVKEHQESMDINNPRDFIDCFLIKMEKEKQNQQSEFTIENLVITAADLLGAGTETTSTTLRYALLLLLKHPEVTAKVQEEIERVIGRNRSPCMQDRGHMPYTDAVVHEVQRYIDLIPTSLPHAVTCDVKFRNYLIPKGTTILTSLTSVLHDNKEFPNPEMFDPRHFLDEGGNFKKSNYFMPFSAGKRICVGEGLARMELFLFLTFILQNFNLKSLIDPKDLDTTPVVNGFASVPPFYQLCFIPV
T3 sequence (P10635 whole entry): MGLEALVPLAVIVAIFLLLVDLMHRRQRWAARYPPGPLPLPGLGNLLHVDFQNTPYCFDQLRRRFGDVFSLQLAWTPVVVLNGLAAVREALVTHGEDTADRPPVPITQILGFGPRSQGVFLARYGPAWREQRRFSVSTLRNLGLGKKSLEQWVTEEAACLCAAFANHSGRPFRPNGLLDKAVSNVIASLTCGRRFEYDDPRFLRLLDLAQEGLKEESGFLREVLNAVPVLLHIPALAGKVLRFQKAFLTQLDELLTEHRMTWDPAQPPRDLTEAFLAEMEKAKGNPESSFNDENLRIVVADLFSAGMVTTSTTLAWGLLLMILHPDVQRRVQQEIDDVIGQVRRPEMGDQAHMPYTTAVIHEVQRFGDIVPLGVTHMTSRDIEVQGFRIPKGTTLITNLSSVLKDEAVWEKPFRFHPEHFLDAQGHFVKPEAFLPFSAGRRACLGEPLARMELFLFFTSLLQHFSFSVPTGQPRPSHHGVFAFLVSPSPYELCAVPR
T1 sequence (P11712 whole entry): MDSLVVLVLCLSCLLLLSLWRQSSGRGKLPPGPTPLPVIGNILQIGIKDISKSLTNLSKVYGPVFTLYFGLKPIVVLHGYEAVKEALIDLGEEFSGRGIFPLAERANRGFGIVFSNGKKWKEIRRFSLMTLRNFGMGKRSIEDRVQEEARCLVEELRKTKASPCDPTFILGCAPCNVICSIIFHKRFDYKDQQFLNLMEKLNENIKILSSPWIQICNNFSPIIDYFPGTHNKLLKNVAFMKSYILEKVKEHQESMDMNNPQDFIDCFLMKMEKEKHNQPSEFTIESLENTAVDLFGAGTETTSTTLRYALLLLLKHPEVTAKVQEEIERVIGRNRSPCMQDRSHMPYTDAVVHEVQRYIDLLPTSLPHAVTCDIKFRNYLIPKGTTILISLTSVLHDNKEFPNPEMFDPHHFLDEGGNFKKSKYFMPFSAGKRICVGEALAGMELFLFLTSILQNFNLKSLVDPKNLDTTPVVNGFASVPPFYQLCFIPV

Structure (SMILES)	CDMF IC15 [1]	clearance [2]	Vd [2]	half-life [2]	t l/2 [3]	clearance [3]	Vd [3]	(% Activity NADPH T0)/(% Activity NADPH T30) (CYP2C9; CYP2C9, 25 μM)	(% Activity NADPH T0)/(% Activity NADPH T30) (CYP2C9; CYP2C9, 50 μM)	activity at 30 min, 25 µM (CYP2C9; CYP2C9, 25 μM)	activity at 0 min, 25 µM (CYP2C9; CYP2C9, 25 μM)	activity at 30 min, 50 µM (CYP2C9; CYP2C9, 50 μM)	activity at 0 min, 50 µM (CYP2C9; CYP2C9, 50 μM)	(% Activity NADPH T0)/(% Activity NADPH T30) (CYP2C19; CYP2C19, 25 μM)	(% Activity NADPH T0)/(% Activity NADPH T30) (CYP2C19; CYP2C19, 50 μM)	activity at 30 min, 25 µM (CYP2C19; CYP2C19, 25 μM)	activity at 0 min, 25 µM (CYP2C19; CYP2C19, 25 μM)	activity at 30 min, 50 µM (CYP2C19; CYP2C19, 50 μM)	activity at 0 min, 50 µM (CYP2C19; CYP2C19, 50 μM)	(% Activity NADPH T0)/(% Activity NADPH T30) (CYP2D6; CYP2D6, 25 μM)	further results
CC(C)N1CC(=O)N(Cc2ccc(Cl)c(F)c2)C2(CN(c3cccnn3)C2)C1=O [Compound 8, 5-(4-chloro-3-fluorobenzyl)-8-isopropyl-2-(pyridazin-3-yl)-2,5,8-triazaspiro[3.5]nonane-6,9-dione]	1300 nM	15.6 mL/min/kg	6.26 L/kg	5.66 h	3.72 h	20.2 mL/min/kg	4.76 L/kg	1.0	1.0	107%	104%	109%	112%	0.9	1.0	99%	94%	92%	93%	0.9	(% Activity NADPH T0)/(% Activity NADPH T30) (CYP2D6; CYP2D6, 50 μM): 1.0; activity at 30 min, 25 µM (CYP2D6; CYP2D6, 25 μM): 98%; activity at 0 min, 25 µM (CYP2D6; CYP2D6, 25 μM): 92%; activity at 30 min, 50 µM (CYP2D6; CYP2D6, 50 μM): 91%; activity at 0 min, 50 µM (CYP2D6; CYP2D6, 50 μM): 87%
CC(C)N1CC(=O)N(Cc2ccc(C(F)(F)F)cc2)C2(CN(c3cccnn3)C2)C1=O [Compound 13, 8-isopropyl-2-(pyridazin-3-yl)-5-(4-(trifluoromethyl)benzyl)-2,5,8-triazaspiro[3.5]nonane-6,9-dione]	2000 nM	11.5 mL/min/kg	3.72 L/kg	4.16 h	1.83 h	21.4 mL/min/kg	3.15 L/kg	0.9	1.0	114%	107%	109%	111%	1.0	0.9	108%	108%	119%	113%	1.0	(% Activity NADPH T0)/(% Activity NADPH T30) (CYP2D6; CYP2D6, 50 μM): 1.4; activity at 30 min, 25 µM (CYP2D6; CYP2D6, 25 μM): 100%; activity at 0 min, 25 µM (CYP2D6; CYP2D6, 25 μM): 96%; activity at 30 min, 50 µM (CYP2D6; CYP2D6, 50 μM): 72%; activity at 0 min, 50 µM (CYP2D6; CYP2D6, 50 μM): 98%
C[C@H]1CC[C@H](N2CC(=O)N(Cc3ccc(Cl)cc3)C3(CN(C(N)=O)C3)C2=O)CC1 [Compound 18, 5-(4-chlorobenzyl)-8-((1r,4r)-4-methylcyclohexyl)-6,9-dioxo-2,5,8-triazaspiro[3.5]nonane-2-carboxamide]	1200 nM	7.07 mL/min/kg	4.29 L/kg	9.08 h	8.04 h	12.5 mL/min/kg	10.2 L/kg	0.9	1.2	47%	44%	27%	32%	1.0	1.1	99%	103%	84%	91%	1.0	(% Activity NADPH T0)/(% Activity NADPH T30) (CYP2D6; CYP2D6, 50 μM): 1.1; activity at 30 min, 25 µM (CYP2D6; CYP2D6, 25 μM): 105%; activity at 0 min, 25 µM (CYP2D6; CYP2D6, 25 μM): 103%; activity at 30 min, 50 µM (CYP2D6; CYP2D6, 50 μM): 91%; activity at 0 min, 50 µM (CYP2D6; CYP2D6, 50 μM): 104%
